Patent US7323460B2, “N-(substituted benzyl)-8-hydroxy-1,6-naphthyridine-7-carboxamides useful as HIV integrase inhibitors” (Merck & Co., Inc., priority 2002, dated 2008)

Assays:
HIV = test: Antiviral potency in the presence of human serum proteins; assay type: cell-based; conditions: relative to closely related N-benzyl-8-hydroxy-1,6-naphthyridine carboxamide integrase inhibitors without ortho polar substituent
[1] = test system: HIV mutants that are resistant to other integrase inhibitors; test: Antiviral activity against HIV mutants resistant to other integrase inhibitors; assay type: cell-based
[2] = biological target: T1, HIV integrase (recombinant integrase) (Human immunodeficiency virus type 1 group M subtype B, UniProt P04585); test: HIV integrase assay: strand transfer catalyzed by recombinant integrase; assay type: biochemical
T1 construct: HIV Integrase Assay: Strand Transfer Catalyzed by Recombinant Integrase
Procedure: HIV Integrase Assay: Strand Transfer Catalyzed by Recombinant Integrase
Assays for the strand transfer activity of integrase were conducted in accordance with the method described in Example 193 of WO 02/30930 for recombinant integrase.
Further description on conducting the assay using preassembled complexes is found in Wolfe, A. L. et al., J. Virol. 1996, 70: 1424-1432, Hazuda et al., J. Virol. 1997, 71: 7005-7011; Hazuda et al., Drug Design and Discovery 1997, 15: 17-24; and Hazuda et al., Science 2000, 287: 646-650.

Compound | antiviral potency in the presence of human serum proteins (HIV) | antiviral activity against several HIV mutants resistant to other integrase inhibitors [1] | IC50 [2] [nM]
CNC(=O)c1cc(F)ccc1CNC(=O)c1nc(N2CCCCS2(=O)=O)c2cccnc2c1O [Compound A, N-{4-fluoro-2-[(methylamino)carbonyl]benzyl}-5-(1,1-dioxido-1,2-thiazinan-2-yl)-8-hydroxy-1,6-naphthyridine-7-carboxamide] | improved | retention of significant antiviral activity | 
CNC(=O)c1cc(F)ccc1CNC(=O)c1nc(N2CCCCS2(=O)=O)c2cccnc2c1O [Example 3, Sodium 5-(1,1-dioxido-1,2-thiazinan-2-yl)-7-[({4-fluoro-2-[(methylamino)carbonyl]-benzyl}amino)carbonyl]-1,6-naphthyridin-8-olate] |  |  | < 500
